{"source": "patent US12344644B2", "about": "“Amelioration and treatment of infarction damage with a polypeptide segement of BNIP3” (priority 2021, dated 2025)", "key": {"wild-type mice [1]": {"tested_on": "wild-type mice", "test": "DOX treatment in vivo: cardiac injury markers (cTnI, CK, LDH, BNP)", "parameters": "species or system mouse", "conditions": "DOX alone or with coadministration of PepB"}, "wild-type mice [2]": {"tested_on": "wild-type mice", "test": "DOX treatment in vivo: serial echocardiography", "conditions": "DOX alone or in combination with PepB", "source_text": "Next, we explored the effect of DOX treatment on cardiac function assessed with echocardiographic measurements at three time points (TO, T1 16 days, T2 42 days) (FIG. 19)."}, "[3]": {"tested_on": "human cardiomyocytes (HCM)", "test": "DOX induced mPTP opening in human cardiomyocytes (Calcein-AM)", "conditions": "10 μM DOX alone or with peptide co-administered"}, "[4]": {"tested_on": "human cardiomyocytes (HCM)", "test": "DOX induced mitochondrial ROS generation in human cardiomyocytes", "conditions": "10 μM DOX alone or with peptide co-administered; four and 22 hours"}, "[5]": {"tested_on": "human cardiomyocytes (HCM)", "test": "DOX induced mitochondrial calcium ion overload in human cardiomyocytes", "conditions": "10 μM DOX alone or with peptide co-administered; four hours"}, "mitochondria": {"tested_on": "mitochondria", "test": "DOX treatment in vivo: mitochondrial OCR (Seahorse mitochondrial stress test)"}, "autophagic flux": {"tested_on": "autophagic flux", "test": "DOX treatment in vivo: autophagic flux (LC3, p62, BNIP3 western blot, chloroquine)", "conditions": "DOX alone or with PepB"}, "[6]": {"tested_on": "human cardiomyocytes (HCM)", "test": "DOX induced mitochondrial membrane potential destabilization in human cardiomyocytes", "conditions": "10 μM DOX alone or with peptide co-administered; four and 22 hours"}, "[7]": {"tested_on": "wild-type mice subjected to myocardial I/R", "test": "In vivo murine myocardial I/R: infarct size per area at risk (Evans blue/TTC)", "parameters": "species or system mouse", "conditions": "30 min ischemia, 24 hours reperfusion"}, "BNIP3": {"tested_on": "BNIP3", "test": "Mitochondrial BNIP3 level in the AAR after I/R (immunoblot)", "assay_type": "in vivo, mouse", "conditions": "10 minutes reperfusion"}, "caspase-3": {"tested_on": "caspase-3", "test": "Caspase-3 activity in the AAR after I/R", "assay_type": "in vivo, mouse", "conditions": "1 hour reperfusion"}, "recombinant BNIP3": {"biological_target": "T1, recombinant BNIP3 (Mus musculus, UniProt O55003)", "T1 construct": "purchased Cusabio (obtained via Hölzel Diagnostika, Cologne, Germany) CSB-CF002766Mo-50", "T1 sequence (O55003 whole entry, the tested form may be a part)": "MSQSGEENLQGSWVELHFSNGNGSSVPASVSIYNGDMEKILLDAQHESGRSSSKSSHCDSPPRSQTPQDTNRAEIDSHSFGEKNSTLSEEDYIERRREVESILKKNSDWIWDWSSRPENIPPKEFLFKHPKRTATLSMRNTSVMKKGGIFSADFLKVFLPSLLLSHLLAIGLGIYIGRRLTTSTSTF", "test": "BNIP3/peptide microarray (truncation, alanine scan, substitution analysis)", "assay_type": "binding", "conditions": "alanine scan and substitution analyses of BNIP3 1-20"}}, "data": [{"compound": "COc1cccc2c1C(=O)c1c(O)c3c(c(O)c1C2=O)C[C@@](O)(C(=O)CO)C[C@@H]3O[C@H]1C[C@H](N)[C@H](O)[C@H](C)O1", "note": "[DOX, doxorubicin]", "values": [{"measurement": "cardiomyocyte death, cardiac troponin I (cTnl) levels", "setting": "wild-type mice [1]", "result": "high cardiac troponin I (cTnl) levels"}, {"measurement": "heart rate", "setting": "wild-type mice [2]", "result": "unaffected"}, {"measurement": "mPTP opening", "setting": "[3]", "result": "activated"}, {"measurement": "mitochondrial ROS generation", "setting": "[4]", "result": "triggered"}, {"measurement": "mitochondrial calcium ion overload", "setting": "[5]", "result": "induced"}, {"measurement": "basal respiration", "setting": "mitochondria; DOX alone or with PepB", "result": "affected"}, {"measurement": "maximal respiration", "setting": "mitochondria; DOX alone or with PepB", "result": "affected"}, {"measurement": "respiratory reserve capacity (OCR)", "setting": "mitochondria; DOX alone or with PepB", "result": "inhibited"}, {"measurement": "Complex II-stimulated respiration", "setting": "mitochondria; DOX alone or with PepB co-treatment", "result": "inhibition"}, {"measurement": "BNIP3 accumulation", "setting": "autophagic flux", "result": "triggered p62 and BNIP3 accumulation"}, {"measurement": "p62 accumulation", "setting": "autophagic flux", "result": "triggered p62 and BNIP3 accumulation"}, {"measurement": "mitochondrial membrane potential", "setting": "[6]", "result": "disrupted"}]}, {"compound": "GRKKRRQRRRPQLDAQHESGRSSSKSSHCDSP [TATBNIP3-20C, control peptide: HIV-1 PTD and 20 amino acids derived from BNIP3 42-61]", "values": [{"measurement": "infarct size compared with vehicle treatment", "setting": "[7]; injected 5 minutes before reperfusion", "result": "no difference"}]}, {"compound": "GRKKRRQRRRPQMSQSGEENLQGSWVELHFSN [TAT-BNIP3-20A, HIV-1 PTD and 20 amino acids derived from BNIP3 1-20]", "values": [{"measurement": "reduction in infarct size relative to treatment with vehicle", "setting": "[7]; peptide injected 5 minutes before reperfusion", "result": 41, "unit": "%"}, {"measurement": "BNIP3 translocation to the mitochondria", "setting": "BNIP3", "result": "prevented BNIP3 translocation"}, {"measurement": "caspase-3 activity", "setting": "caspase-3", "result": "markedly reduced caspase-3 activity"}]}, {"compound": "VELHFSN", "values": [{"measurement": "BNIP3 binding (microarray signal)", "setting": "recombinant BNIP3", "result": "substantially higher luminescence"}]}]}
